These results are taken from patent US6166070A, “Kodaistatins A, B, C and D, a process for their production and their use” (Aventis Pharma Deutschland GmbH, priority 1997, dated 2000).

One series can be described thus: solubility. Type of series: physicochemical. The following applies: solvents in which soluble.
The target in series [1] is T1, rat liver microsomal glucose-6-phosphate translocase (Rattus norvegicus, UniProt F7EWB7).
T1 construct: rat liver microsomal glucose-6-phosphate translocase; from tissue; host or cells: rat liver microsomes (untreated and Triton X-100 disrupted)
T1 sequence (F7EWB7 1-429): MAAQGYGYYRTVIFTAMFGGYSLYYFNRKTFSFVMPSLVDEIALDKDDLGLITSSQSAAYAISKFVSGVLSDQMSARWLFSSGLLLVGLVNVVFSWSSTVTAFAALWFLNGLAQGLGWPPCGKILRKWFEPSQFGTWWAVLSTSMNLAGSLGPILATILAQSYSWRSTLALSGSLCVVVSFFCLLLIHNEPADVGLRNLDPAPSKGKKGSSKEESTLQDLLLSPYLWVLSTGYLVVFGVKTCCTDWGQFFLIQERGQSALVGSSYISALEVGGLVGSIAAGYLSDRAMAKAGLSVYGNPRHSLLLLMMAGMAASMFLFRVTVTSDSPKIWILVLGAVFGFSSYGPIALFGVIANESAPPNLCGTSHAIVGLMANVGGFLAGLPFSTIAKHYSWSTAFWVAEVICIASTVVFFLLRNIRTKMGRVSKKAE
Briefly: inhibition of rat liver microsomal glucose-6-phosphate translocase (colorimetric assay, untreated and Triton X-100 disrupted microsomes). In kind it is biochemical. The procedure:
(§1) The fermentation is preferably carried out for 40 to 90 hours when an optimal yield of the compounds of the present invention are obtained. It is particularly preferred to carry out the fermentation for 45-70 hours under submerged conditions for example in shake flasks as well as in laboratory fermenters. If desired, antifoam agents like Desmophen® (Polypropylene oxide, Bayer A G, Leverkusen, Germany) may be used in the fermentation process. The progress of fermentation and formation of Kodaistatins A, B, C and D can be detected by measuring the […] in untreated and Triton X-100® disrupted rat liver microsomes in microliter plates at room temperature using a colorimetric assay as described in Methods in Enzymology, 174,58-67 (1989) with some modification and by HPLC In the resulting culture broth, kodaistatin B, C and D are present as minor compounds, and kodaistatins A as a major compound. Thus, the active crude material can be recovered by extraction of mycelium with water miscible solvents such as methanol, ethanol and acetone, and extraction of the culture filtrate with a water immiscible solvent such as ethyl acetate, dichioromethane, chloroform or butanol at pH 5-8 or by hydrophobic interaction chromatography using polymeric resins such as "Diaion HP-20®" (Mitsubishi Chemical Industries Limited, Japan), "Amberlite XAD®" (Rohm and Haas Industries U.S.A.) activated charcoal or ion exchange chromatography at pH 5-8. The preferred method is adsorption over "Diaion HP-20®" followed by desorption of the compound using eluants such as water, methanol, acetone or acetonitrile or combinations thereof. Concentration and lyophilization of the active eluates gives the crude compound.
Kodaistatins A, B, C and D inhibit potently the activity of rat liver microsomal glucose-6-phosphate translocase.

For series [2], the system named is glucagon-induced glycogenolysis. Briefly: glucose output of isolated rat hepatocytes, glucagon-induced glycogenolysis. Type of series: cell-based. The following applies: Hepatocyte, read-out: IC50, inhibition of glucagon-induced glycogenolysis. An excerpt: (§2) Kodaistatin A was further evaluated in isolated rat hepatocytes for its effect on glucose output.
The subject of series [3] is phosphate/pyrophosphate translocase. Description: effect on activity of phosphate/pyrophosphate translocase. In kind it is biochemical, rat.
The test system of series [4] is fructose-induced gluconeogenesis. Description: glucose output of isolated rat hepatocytes, fructose-induced gluconeogenesis. The following applies: Hepatocyte, read-out: IC50, inhibition of fructose-induced gluconeogenesis. Type of series: cell-based.
Excerpt: as §2

The next series addresses T2, phosphatase (Rattus norvegicus, UniProt P43428).
T2 construct: from tissue; host or cells: rat liver microsomes, detergent (Triton X-100) disrupted
T2 sequence (P43428 1-357): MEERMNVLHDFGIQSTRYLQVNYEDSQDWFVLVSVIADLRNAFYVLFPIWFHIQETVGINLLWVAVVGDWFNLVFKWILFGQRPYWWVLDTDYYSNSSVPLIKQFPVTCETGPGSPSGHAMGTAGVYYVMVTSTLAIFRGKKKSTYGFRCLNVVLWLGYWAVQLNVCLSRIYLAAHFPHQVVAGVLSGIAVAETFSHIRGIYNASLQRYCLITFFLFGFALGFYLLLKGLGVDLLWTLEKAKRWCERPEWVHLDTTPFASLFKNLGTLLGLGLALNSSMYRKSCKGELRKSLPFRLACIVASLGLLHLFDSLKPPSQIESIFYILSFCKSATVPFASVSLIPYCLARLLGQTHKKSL
Description: inhibition of phosphatase activity in detergent-disrupted microsomes. In kind it is biochemical. The following applies: for IC50: detergent-disrupted microsomes. The procedure: as §1

Setting [5] is: rat liver microsomes, read-out: approximate IC50, glucose-6-phosphate translocase (converted).

In brackets after ≈: the same amount, converted by molar mass. Like-named read-outs stand apart in the source and are kept apart here.

In the case of `CCC(C)C=C(C)C=CC(=O)CC1=C(c2cc(O)c(O)cc2C2=C(O)C(=Cc3ccc(O)cc3)OC2=O)C(O)(C(C)=O)C(O)C1=O` (single isomer, unassigned) [Kodaistatin B], in “solubility”, the Solubility result is “MeOH and DMSO”. In addition, the IC50 in series [1] (setting [5]) was about 0.476 µM.
`CCC(C)/C=C(C)/C=C/C(=O)CC1=C(c2cc(O)c(O)cc2C2=C(O)/C(=C/c3ccc(O)cc3)OC2=O)C(O)(C(C)=O)C(O)C1=O` (centres unmarked) [Kodaistatin A]: the IC50 in series [2] was about 50 µg/mL (≈ 79.3 µM); in series [4] it was about 25 µg/mL (≈ 39.6 µM); in series [1] (Example V, isolation and purification, read-out: IC50, glucose-6-phosphate translocase, material at stages of purification (converted)), 0.317 µM; in series [1] (rat liver microsomes, molar value in parentheses, read-out: approximate IC50, glucose-6-phosphate translocase (converted)), about 0.3 µM; in series [1] (setting [5]), about 0.317 µM; on phosphatase, about 317 µM. Moreover, the IC50 on phosphatase (molar value in parentheses) is about 300 µM. Also, in series [3], the “effect on activity of phosphate/pyrophosphate translocase” value is given as “did not affect the activity”. Further, the Solubility result in the series “solubility” is “MeOH, CH3 CN and DMSO”. Further, the “mode of inhibition of glucose-6-phosphate translocase” value in series [1] is “reversible and competitive inhibitor”. Besides, the “specificity for translocase over phosphatase” value on phosphatase (translocase vs phosphatase) is reported as “high degree of specificity for translocase”.
On to `CCC(C)C=C(C)C=CC(=O)CC1=C(c2cc(O)c(O)cc2C2=C(O)C(=Cc3ccc(O)c(O)c3)OC2=O)C(O)(C(C)=O)C(O)C1=O` (centres unmarked) [Kodaistatin C], for which the Solubility entry in “solubility” was “MeOH and DMSO”. Also, the IC50 in series [1] (setting [5]) is about 0.139 µM.
Take `CCC(C)C=C(C)C=CC(=O)CC1=C(c2cc(O)c(O)cc2C2=C(O)C(=Cc3ccc(O)c(O)c3)OC2=O)C(O)(C(C)=O)C(O)C1=O` (centres unmarked) [Kodaistatin D]: in “solubility”, the Solubility result is “MeOH and DMSO”. Further, in series [1] (setting [5]), the IC50 is about 0.773 µM.
